In patent US12391653B2, “Salt form and crystal form of mutant IDH1 inhibitor and preparation method therefor” (KPC PHARMACEUTICALS, INC, priority 2019, dated 2025):
pIC50: −log10 of the molar value.

What was measured:
[1] = Hygroscopicity study by dynamic vapor sorption (DVS); format: physicochemical; details: 25° C. and 80% RH
Protocol: Dynamic Vapor Sorption (DVS) Method of the Present Disclosure
Instrument model: SMS DVS intrinsic dynamic moisture adsorption instrument
Test conditions: 10 mg of the sample was weighed out and placed in a DVS sample tray for testing.
The detailed DVS parameters were as follows:
RH (%) test gradient range: 0%-95%-0%
The hygroscopicity evaluation is classified as follows:
SMS DVS intrinsic Dynamic Vapor Sorption Instrument

[2] = Solid stability test (crystalline form by XRPD); format: physicochemical
Protocol: According to the “Guidelines for Stability Test of Raw Materials and Preparations” (General Principles 9001 of Part Four of Chinese Pharmacopoeia 2015 Edition), crystalline form E of the compound represented by formula (I) was investigated for stability at high temperature (60° C., open), high humidity (room temperature/relative humidity 92.5%, open) and strong light (5000 lx, closed).
About 10 mg of compound represented by formula (I) was accurately weighed out, placed in a dry and clean glass bottle, spread out into a thin layer and covered with aluminum foil with small holes under the influence factor test conditions (60° C., 92.5% RH) and accelerated conditions (40° C./75% RH and 60° C./75% RH). The samples placed under the condition of light (visible light 1200000 Lux, ultraviolet 200 W) were in transparent glass bottles, with one group fully exposed and the other fully packaged with aluminum foil. Samples in duplicate were placed under each condition at each time point, and the samples for XRPD detection were placed separately. Samples placed under different conditions were sampled for XRPD detection at the planned test end point, and the test results were compared with the initial test results at Day 0.

[3] = Solid stability test (crystalline form by XRPD); format: physicochemical; details: Light (total illuminance = 1.2 × 10^6 Lux, Near UV = 200 w · hr/m^2, open)
IDH1 (R132H) = IDH1 (R132H) (Homo sapiens, UniProt O75874, R132H); assay: IDH1 enzyme activity test in vitro (IDH1 R132H); format: biochemical
Protocol: (§1) IDH1 mutant catalyzes the NADPH-dependent reduction of α-KG (α-ketoglutaric acid) to 2-HG (2-hydroxyglutaric acid), and the consumed NADPH can be read out by fluorescence.
(§2) Basic reaction buffer: 50 mM KH2PO4, pH 7.5, 10 mM […], 10% glycerol, 150 mM NaCl, 0.05% BSA (bovine serum albumin), 2 mM b-ME (2-mercaptoethanol), 0.003% Brij35 (oxyethylene lauryl ether)
(§3) Substrates and cCofactors:
(§4) 1.33× enzyme (no control wells), buffer and NADP or NADPH (control wells) were added to the wells of a reaction plate. The compounds to be tested were dissolved in 100% DMSO, then added to the enzyme mixture (Echo550, nanoliter level) and incubated for 60 min after brief centrifugation. A mixture of 4× substrate and cofactor was added to start the reaction, briefly centrifuged, shaken, and incubated at room temperature for 45 min. A mixture of 3× lipoamide dehydrogenase and resazurin was prepared, added to the reaction solution to test the amount of the generated or remaining NADPH, incubated at room temperature for 10 min after simple centrifugation, and measured using a multifunctional microplate reader Envision (Ex/Em±535/590 nm).

IDH1 (R132C) = IDH1 (R132C) (Homo sapiens, UniProt O75874, R132C); assay: IDH1 enzyme activity test in vitro (IDH1 R132C); format: biochemical
Protocol: as §1, §2, §3, §4

IDH1 wt (wild type) = IDH1 wt (wild type) (Homo sapiens, UniProt O75874); assay: IDH1 enzyme activity test in vitro (IDH1 wild type); format: biochemical
Protocol: as §1, §2, §3
IDH1 wt (wild type): 65 μM isocitrate ±50 μM NADP
as §4

U87MG IDH1-R132H = target: T1, U87MG IDH1-R132H (Homo sapiens, UniProt O75874, R132H); assay: IDH1 cytological activity test, 2HG content in cell culture supernatant by LC-MS; format: cell-based
T1 construct: expressed in transfected cells; host or cells: U87MG
Protocol: In this study, after co-incubating the compound with IDH1 mutant cell lines, the 2HG content in the cell culture supernatant was detected by LC-MS to determine the inhibitory activity of the compound on IDH1 mutants. IDH1 catalyzes the reduction of isocitrate to α-ketoglutaric acid (α-KG) in vivo, while IDH1 mutants further catalyze the reduction of α-KG to 2-hydroxyglutaric acid (2HG).
U87MG-IDH1-R132H cell line is a stable transfected cell line that can stably express IDH1-R132H mutant by transfecting U87MG cells with IDH1-R132H, and HT1080 cell line contains endogenous IDH1-R132C mutant.
The experimental process is as follows:
1) The compound was 3-fold serially diluted with DMSO and added to a cell culture plate, with a total of 10 concentrations, each concentration in duplicate. Negative control wells contained DMSO only, and positive control wells contained BAY1436032 at a final concentration of 5 μM. The final concentration of DMSO in all wells was 0.5%.
2) The IDH1 mutant cell line was seeded into the compound-containing cell culture plate at a density of 40,000 cells/well. Cells were co-incubated with compounds for 3 days in a 37° C., 5% CO2 incubator.
3) After 3 days, 10 μl of cell culture supernatant was taken, diluted 21 times with 200 μl of ddH2O to 210 μl and mixed well. […]

[4] = Pharmacokinetic evaluation in mice; set-up: species or system CD-1 mice; details: mouse, in vivo
Protocol: The pharmacokinetic parameters of the compound represented by formula (I) were detected in mice.
1) Experimental drug: compound represented by formula (I);
2) Experimental animals: 8 male CD-1 mice aged 7-10 weeks, divided into 2 groups, 4 mice in each group;
3) Drug preparation: for the tail vein injection group, an appropriate amount of the drug was weighed out and dissolved in a mixed solvent of DMSO: 20% hydroxypropyl beta-cyclodextrin (HPbCD)±10:90 to prepare a solution of 0.5 mg/mL; for the gavage administration group, an appropriate amount of the drug was weighed out and dissolved in a mixed solvent of DMSO: polyoxyethylene castor oil EL (Cremophor EL): 5% sulfobutylcyclodextrin (Captisol)±5:10:85 to prepare into a suspension.
Animals in group 1 were given a single dose of 1 mg/kg drug at a concentration of 0.5 mg/mL via tail vein injection, and animals in group 2 were given the compound at a dose of 20 mg/kg at a concentration of 2 mg/mL by gavage. Animals were cross-collected for plasma samples at 0.0833 (the tail vein injection group only), 0.25, 0.5, 1, 2, 4, 6, 8 and 24 h after administration. The drug concentration in the plasma samples was determined by LC-MS/MS method, and the kinetic parameters of the tested drugs were obtained in Table 11: […]

T1 sequence (O75874 whole entry R132H): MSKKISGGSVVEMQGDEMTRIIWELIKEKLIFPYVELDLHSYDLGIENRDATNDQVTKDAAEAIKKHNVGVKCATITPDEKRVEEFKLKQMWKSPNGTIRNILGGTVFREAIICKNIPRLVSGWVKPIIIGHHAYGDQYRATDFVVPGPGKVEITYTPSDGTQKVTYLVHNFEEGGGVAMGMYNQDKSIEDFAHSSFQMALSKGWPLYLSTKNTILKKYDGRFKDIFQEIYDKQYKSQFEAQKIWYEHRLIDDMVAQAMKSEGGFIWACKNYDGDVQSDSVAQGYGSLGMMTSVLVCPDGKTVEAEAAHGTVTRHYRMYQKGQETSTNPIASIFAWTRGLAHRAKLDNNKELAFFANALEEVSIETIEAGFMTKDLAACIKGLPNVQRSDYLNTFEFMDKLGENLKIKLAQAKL
Chain of IDH1 (R132H) (O75874 whole entry R132H): as above
Chain of IDH1 wt (wild type) (O75874 whole entry): as the sequence (O75874 whole entry R132H) above, with H132R counted along it
Chain of IDH1 (R132C) (O75874 whole entry R132C): as the sequence (O75874 whole entry R132H) above, with H132C counted along it

| Structure (SMILES) | Hygroscopic classification [1] | hygroscopic weight gain ΔW [1] [%] | Crystalline form ([2]; 0 days (initial)) | Crystalline form ([2]; 25° C./92.5% RH, open, 5 days) | Crystalline form ([2]; 25° C./92.5% RH, open, 10 days) | Crystalline form ([2]; 40° C./75% RH, open, 1 month) | Crystalline form ([2]; 40° C./75% RH, open, 2 months) | Crystalline form ([2]; 40° C./75% RH, open, 3 months) | Crystalline form ([2]; 60° C., open, 5 days) | Crystalline form ([2]; 60° C., open, 10 days) | Crystalline form ([2]; 60° C./75% RH, open, 1 month) | Crystalline form ([2]; 60° C./75% RH, open, 2 months) | Crystalline form ([3]; 5 days) | Crystalline form ([3]; 10 days) | inhibitory effect on mutant IDH1R132H at the enzymatic level (IDH1 (R132H)) | inhibitory effect on mutant IDH1R132C at the enzymatic level (IDH1 (R132C)) | inhibitory effect on wild-type IDH protein (IDH1 wt (wild type)) | 2-HG inhibitory effect on U87MG glioma cells with IDH1R132H mutation (U87MG IDH1-R132H) | pIC50 (U87MG IDH1-R132H; 2-HG inhibition, cells co-incubated with compound for 3 days) | pharmacokinetic properties in mice [4] |
| --- | --- | --- | --- | --- | --- | --- | --- | --- | --- | --- | --- | --- | --- | --- | --- | --- | --- | --- | --- | --- |
| O=C(O)CCc1ccc2c(c1)nc(Nc1ccc(OC(F)(F)F)cc1)n2[C@@H]1CCCc2ccccc21 | non-hygroscopic | 0.09 | Crystalline form B | Crystalline form B | Crystalline form B | Crystalline form B | Crystalline form B | Crystalline form B | Crystalline form B | Crystalline form B | Crystalline form B | Crystalline form B | Crystalline form B | Crystalline form B | – | – | – | – | – | – |
| O=C(O)CCc1ccc2c(c1)nc(Nc1ccc(OC(F)(F)F)cc1)n2[C@@H]1CCCc2ccccc21 [Compound represented by formula (I)] | – | – | – | – | – | – | – | – | – | – | – | – | – | – | good inhibitory effect | good inhibitory effect | no inhibitory effect | good 2-HG inhibitory effect | 7.42 | good pharmacokinetic properties |
